For the test, the target named is T1, human enzyme NAMPT (full length) (Homo sapiens, UniProt P43490).
T1 construct: human enzyme NAMPT (full length)
As to the kind of experiment: NMN fluorescence biochemical assay (stimulation of NMN synthesis by NAMPT). As to conditions: for EC50: concentration giving half-maximal activation, read-out: Enzymatic EC50; for Enzymatic Emax: fold change of maximal activation compared to DMSO. Summed up:
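Full-length human NAMPT (100 nM) was preincubated 15 min at 37 °C with compound in 50 mM Tris-HCl pH 7.5, 10 mM MgCl2, 2 mM DTT, then reacted 1 h at 37 °C with 50 μM NAM, 100 μM PRPP, 4 mM ATP (stated solution concentrations). NMN was derivatised with acetophenone/KOH then formic acid and read at Ex/Em 382/445 nm; EC50 and Emax (fold over DMSO) reported.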

[1] abbreviates: NMN fluorescence assay, purified human NAMPT 100 nM.
Where [2] appears, read: NMN synthesis by purified human NAMPT (100 nM).

The source of these data is US20260078130A1, “NAMPT MODULATORS, PREPARATIONS, AND USES THEREOF” (SIRONAX LTD., priority 2022, published 2026).

Like-named read-outs stand apart in the source and are kept apart here.

T1 sequence (P43490 whole entry): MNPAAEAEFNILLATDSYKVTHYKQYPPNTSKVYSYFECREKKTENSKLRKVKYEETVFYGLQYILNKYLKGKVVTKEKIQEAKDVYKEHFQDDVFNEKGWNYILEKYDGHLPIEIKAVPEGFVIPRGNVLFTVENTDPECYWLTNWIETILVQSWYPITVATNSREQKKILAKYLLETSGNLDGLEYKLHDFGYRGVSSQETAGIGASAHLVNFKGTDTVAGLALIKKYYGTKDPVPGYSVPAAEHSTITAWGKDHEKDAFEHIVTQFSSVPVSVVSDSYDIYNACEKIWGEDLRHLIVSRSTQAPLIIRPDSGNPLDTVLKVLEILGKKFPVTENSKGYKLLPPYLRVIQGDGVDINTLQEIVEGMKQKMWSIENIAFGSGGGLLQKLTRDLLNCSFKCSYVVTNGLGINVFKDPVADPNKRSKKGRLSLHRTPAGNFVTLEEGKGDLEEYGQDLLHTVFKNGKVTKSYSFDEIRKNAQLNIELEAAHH

Take `O=C1N[C@H]2CCC(CN3C(=O)c4ccccc4C3Cc3ncccc3Br)C[C@@H]2O1` (relative stereo) [Compound 466, trans-6-((1-((3-bromopyridin-2-yl)methyl)-3-oxoisoindolin-2-yl)methyl)hexahydrobenzo[d]oxazol-2(3H)-one]: the “Enzymatic Emax” value is listed as “C (2≥C)”. The EC50 (usually the concentration giving half of the maximal effect) under setting [1] was at least 5 µM. On to `O=C1c2cccc(Nc3ccccc3)c2C(=O)N1Cc1ccc(O)cc1` [Compound 17, 2-(4-hydroxybenzyl)-4-(phenylamino)isoindoline-1,3-dione], for which the “Enzymatic Emax” value is recorded as “B (3≥B>2)”. Moreover, under setting [2], the EC50 fell in the range of 0.5 to 5 µM.

With `Cc1ccnnc1CC1c2ccccc2C(=O)N1Cc1ccc2[nH]c(=O)oc2c1` (stereo not drawn) [Compound 261, 6-((1-((4-methylpyridazin-3-yl)methyl)-3-oxoisoindolin-2-yl)methyl)benzo[d]oxazol-2(3H)-one], the “Enzymatic Emax” value is given as “A (A>3)”. Besides, the concentration for a half-maximal effect (EC50) under setting [2] was in the range of 0.5 to 5 µM. Turning to `O=C1c2ccccc2C(Cc2ncccc2Br)N1Cc1ccn2c(CO)nnc2c1` (stereo not drawn) [Compound 323, 3-((3-bromopyridin-2-yl)methyl)-2-((3-(hydroxymethyl)-[1,2,4]triazolo[4,3-a]pyridin-7-yl)methyl)isoindolin-1-one], the “Enzymatic Emax” value is reported as “B (3≥B>2)”. Moreover, the EC50 under setting [1] is at least 5 µM. `COC(C)(C)c1ccc2c(c1)C(Cc1c(Cl)cnn1C)N(Cc1ccc3[nH]nnc3c1)C2=O` (stereo not drawn) [Compound 396, 2-((1H-benzo[d][1,2,3]triazol-5-yl)methyl)-3-((4-chloro-1-methyl-1H-pyrazol-5-yl)methyl)-5-(2-methoxypropan-2-yl)isoindolin-1-one]: the “Enzymatic Emax” value is reported as “B (3≥B>2)”. In addition, the concentration giving a half-maximal response (EC50) under setting [1] was 0.5 to 5 µM. Take `Cc1cc(CC2c3ccccc3C(=O)N2Cc2ccc3[nH]c(=O)oc3c2)ccn1` (stereo not drawn) [Compound 179, 6-((1-((2-methylpyridin-4-yl)methyl)-3-oxoisoindolin-2-yl)methyl)benzo[d]oxazol-2(3H)-one]: the “Enzymatic Emax” value is “B (3≥B>2)”. Further, under setting [2], the concentration for a half-maximal effect (EC50) is at least 5 µM. Regarding `N#Cc1nccc(Cl)c1CC1c2cc(C3COC3)ccc2C(=O)N1Cc1ccc2[nH]c(=O)oc2c1` (stereo not drawn) [Compound 285, 4-chloro-3-((6-(oxetan-3-yl)-3-oxo-2-((2-oxo-2,3-dihydrobenzo[d]oxazol-6-yl)methyl)isoindolin-1-yl)methyl)picolinonitrile], the “Enzymatic Emax” value is “B (3≥B>2)”. The EC50 under setting [2] was below 0.5 µM. `Cc1n[nH]cc1/C=C(/F)CN1C(=O)c2ccccc2C1Cc1c(Cl)cnn1C` (stereo not drawn) [Compound 504, (E)-3-((4-chloro-1-methyl-1H-pyrazol-5-yl)methyl)-2-(2-fluoro-3-(3-methyl-1H-pyrazol-4-yl)allyl)isoindolin-1-one]: the “Enzymatic Emax” value was “B (3≥B>2)”. The EC50 under setting [1] is 0.5 to 5 µM. In the case of `CC(=O)Nc1ncc(CN2C(=O)c3ccccc3C2Cc2ncccc2Br)cn1` (stereo not drawn) [Compound 443, N-(5-((1-((3-bromopyridin-2-yl)methyl)-3-oxoisoindolin-2-yl)methyl)pyrimidin-2-yl)acetamide], the “Enzymatic Emax” value was “C (2≥C)”. Further, under setting [1], the concentration for a half-maximal effect (EC50) was 0.5 to 5 µM.

For the compound `COc1ncc(CN2C(=O)c3ccccc3C2Cc2c(Cl)cnn2C)cc1F` (stereo not drawn) [Compound 532, 3-((4-chloro-1-methyl-1H-pyrazol-5-yl)methyl)-2-((5-fluoro-6-methoxypyridin-3-yl)methyl)isoindolin-1-one], the “Enzymatic Emax” value is recorded as “C (2≥C)”. For the same compound, the EC50 under setting [1] was at least 5 µM. For `Cn1ncc(Cl)c1CC1c2ccccc2C(=O)N1C[C@@H]1C[C@H]1c1c[nH]nn1` (relative stereo) [Compound 548, trans 2-((2-(1H-1,2,3-triazol-4-yl)cyclopropyl)methyl)-3-((4-chloro-1-methyl-1H-pyrazol-5-yl)methyl)isoindolin-1-one], the 50% effective concentration (EC50) under setting [1] lay within 0.5 to 5 µM.

Turning to `O=C1c2ccccc2C(Cc2ncccc2Br)N1C/C=C/c1n[nH]c(=O)o1` (stereo not drawn) [Compound 458, (E)-5-(3-(1-((3-bromopyridin-2-yl)methyl)-3-oxoisoindolin-2-yl)prop-1-en-1-yl)-1,3,4-oxadiazol-2(3H)-one], the “Enzymatic Emax” value is given as “B (3≥B>2)”. In addition, the EC50 under setting [1] is at least 5 µM. With `COc1ccc(CN2C(Cc3c(Cl)cnn3C)c3ccccc3S2(=O)=O)cn1` (stereo not drawn) [Compound 642, 3-((4-chloro-1-methyl-1H-pyrazol-5-yl)methyl)-2-((6-methoxypyridin-3-yl)methyl)-2,3-dihydrobenzo[d]isothiazole 1,1-dioxide], the “Enzymatic Emax” value was “B (3≥B>2)”. For the same compound, under setting [1], the EC50 is at least 5 µM. For the compound `Cc1cc(Cl)n(CC2c3ccccc3C(=O)N2Cc2ccc3[nH]nnc3c2)n1` (stereo not drawn) [Compound 355, 2-((1H-benzo[d][1,2,3]triazol-5-yl)methyl)-3-((5-chloro-3-methyl-1H-pyrazol-1-yl)methyl)isoindolin-1-one], the “Enzymatic Emax” value was “A (A>3)”. In addition, under setting [1], the EC50 is at least 5 µM. For the compound `Nc1nnc2cc(CN3C(=O)c4ccccc4C3Cc3ncccc3Br)ccn12` (stereo not drawn) [Compound 269, 2-((3-amino-[1,2,4]triazolo[4,3-a]pyridin-7-yl)methyl)-3-((3-bromopyridin-2-yl)methyl) isoindolin-1-one], the “Enzymatic Emax” value is on record as “B (3≥B>2)”. Also, the 50% effective concentration (EC50) under setting [2] is at least 5 µM. For `O=C1c2ccccc2C(Cc2ccc3ncoc3c2)N1Cc1ccc2[nH]c(=O)oc2c1` (stereo not drawn) [Compound 216, 6-((1-(benzo[d]oxazol-6-ylmethyl)-3-oxoisoindolin-2-yl)methyl)benzo[d]oxazol-2(3H)-one], the “Enzymatic Emax” value is listed as “A (A>3)”. Besides, under setting [2], the EC50 fell in the range of 0.5 to 5 µM.

With `[2H]C([2H])(C1CC2(CNC(=O)O2)C1)N1C(=O)c2ccccc2C1Cc1c(Cl)cnn1C` (stereo not drawn) [Compound 643, 2-((1-((4-chloro-1-methyl-1H-pyrazol-5-yl)methyl)-3-oxoisoindolin-2-yl)methyl-d)-5-oxa-7-azaspiro[3.4]octan-6-one], the “Enzymatic Emax” value is given as “B (3≥B>2)”. Further, the concentration giving a half-maximal response (EC50) under setting [1] lay within 0.5 to 5 µM. Regarding `Cn1ncc(Cl)c1CC1c2ccccc2C(=O)N1Cc1ccc(Br)cc1` (stereo not drawn) [Compound 575, 2-(4-bromobenzyl)-3-((4-chloro-1-methyl-1H-pyrazol-5-yl)methyl)isoindolin-1-one], the “Enzymatic Emax” value was “C (2≥C)”. Moreover, the concentration giving a half-maximal response (EC50) under setting [1] lay within 0.5 to 5 µM.

With `Cn1ncc(Cl)c1CC1c2cccc(Br)c2C(=O)N1CC1CC2(CNC(=O)O2)C1` (stereo not drawn) [Compound 434, 2-((4-bromo-1-((4-chloro-1-methyl-1H-pyrazol-5-yl)methyl)-3-oxoisoindolin-2-yl)methyl)-5-oxa-7-azaspiro[3.4]octan-6-one], the “Enzymatic Emax” value is “B (3≥B>2)”. The 50% effective concentration (EC50) under setting [1] is 0.5 to 5 µM. `O=C1c2ccccc2C(Cc2ncccc2Br)N1Cc1ccc2[nH]cnc2c1` (stereo not drawn) [Compound 268, 2-((1H-benzo[d]imidazol-5-yl)methyl)-3-((3-bromopyridin-2-yl)methyl)isoindolin-1-one]: the “Enzymatic Emax” value is reported as “A (A>3)”. Moreover, the EC50 under setting [2] was 0.5 to 5 µM. The corresponding values for `N#CC1c2ccccc2C(=O)N1Cc1ccc(O)cc1` (stereo not drawn) [Compound 28, 2-(4-hydroxybenzyl)-3-oxoisoindoline-1-carbonitrile] are “A (A>3)” and at least 5 µM. For `Cn1ncc(Cl)c1CC1c2ccccc2C(=O)N1CC#Cc1c[nH]cn1` (stereo not drawn) [Compound 452, 2-(3-(1H-imidazol-4-yl)prop-2-yn-1-yl)-3-((4-chloro-1-methyl-1H-pyrazol-5-yl)methyl)insoindolin-1-one], the “Enzymatic Emax” value is on record as “C (2≥C)”. For the same compound, the EC50 under setting [1] lay within 0.5 to 5 µM. Regarding `O=C1c2ccccc2C(Cc2ncccc2Br)N1Cc1ccn2c(=O)[nH]nc2c1` (stereo not drawn) [Compound 281, 7-((1-((3-bromopyridin-2-yl)methyl)-3-oxoisoindolin-2-yl)methyl)-[1,2,4]triazolo[4,3-a]pyridin-3(2H)-one], the “Enzymatic Emax” value is “C (2≥C)”. Further, the EC50 under setting [2] was at least 5 µM. Consider `Cc1cnn(C)c1CC1c2ccccc2C(=O)N1Cc1ccc2[nH]nnc2c1` (stereo not drawn) [Compound 365, 2-((1H-benzo[d][1,2,3]triazol-5-yl)methyl)-3-((1,4-dimethyl-1H-pyrazol-5-yl)methyl)isoindolin-1-one], for which the “Enzymatic Emax” value was “B (3≥B>2)”. Moreover, the EC50 under setting [1] lay within 0.5 to 5 µM. Taken in the same sequence, the figures for `Cn1ncc(Cl)c1CC1c2ccccc2C(=O)N1C/C=C/c1nn[nH]c1Cl` (stereo not drawn) [Compound 525, (E)-3-((4-chloro-1-methyl-1H-pyrazol-5-yl)methyl)-2-(3-(5-chloro-1H-1,2,3-triazol-4-yl)allyl)isoindolin-1-one] were “C (2≥C)” and at least 5 µM. Turning to `O=C1COc2ccccc2N1Cc1ccc(O)cc1` [Compound 6, 4-(4-hydroxybenzyl)-2H-benzo[b][1,4]oxazin-3(4H)-one], the “Enzymatic Emax” value is listed as “B (3≥B>2)”. Further, the EC50 under setting [2] was at least 5 µM. In the case of `Cn1ncc(Cl)c1CC1c2ccccc2C(=O)N1Cc1nn[nH]c1F` (stereo not drawn) [Compound 630, 3-((4-chloro-1-methyl-1H-pyrazol-5-yl)methyl)-2-((5-fluoro-1H-1,2,3-triazol-4-yl)methyl)isoindolin-1-one], the “Enzymatic Emax” value is on record as “C (2≥C)”. In addition, the EC50 under setting [1] was at least 5 µM. The corresponding values for `Cn1ncc(Cl)c1CC1c2ccccc2C(=O)N1CC1CCc2[nH]nnc21` (stereo not drawn) [Compound 457, 3-((4-chloro-1-methyl-1H-pyrazol-5-yl)methyl)-2-((1,4,5,6-tetrahydrocyclopenta[d][1,2,3]triazol-4-yl)methyl)isoindolin-1-one] are “C (2≥C)” and at least 5 µM. As to `Cn1ncc(Cl)c1CC1c2ccccc2C(=O)N1Cc1ccc2ocnc2c1` (stereo not drawn) [Compound 561, 2-(benzo[d]oxazol-5-ylmethyl)-3-((4-chloro-1-methyl-1H-pyrazol-5-yl)methyl)isoindolin-1-one], the “Enzymatic Emax” value was “C (2≥C)”. Under setting [1], the concentration giving a half-maximal response (EC50) was at least 5 µM.
